# Measured values: PMC10967270, “Intrapulmonary and Systemic Pharmacokinetics of Colistin Following Nebulization of Low-Dose Colistimethate Sodium in Patients with Ventilator-Associated Pneumonia Caused by Carbapenem-Resistant Acinetobacter baumannii” (Antibiotics, 2024)
# Like-named read-outs stand apart in the source and are kept apart here. Positions of bridges follow the written chain, without caps; N, C: chain ends. Non-standard residues stand in square brackets, D forms with d. Residues, ends and D or L forms follow the SMILES beside them. *: point of attachment. X1 = CC[C@H](C)CCCCC(=O)*; Dab = NCC[C@H](N)C(=O)O
# Experiments:
# [1] = cited from earlier work
# Experimental: We investigated whether the fAUC values of individual patients were associated with clinical or microbiological outcomes (Table 3). Using individual estimates of CL derived from the final PK model, we calculated the steady-state fAUC for each patient when a total of 3.75 MIU (=300 mg CMS = 112.5 mg CBA) was administered at 6 h intervals four times a day, using the formula AUC = DOSE/CL. The unbound fraction of colistin was assumed to be 10% [25] in the ELF based on the study by Gkoufa et al. and 34% in the plasma based on the study by Mohamed et al.. Gkoufa et al. presented concentrat ...
# A. baumannii = conditions: among 2879 isolates, EUCAST; cited from earlier work
# [2] = Population PK model of colistin in epithelial lining fluid (NONMEM, one-compartment, Weibull absorption); assay type: in vivo, human; conditions: ELF
# Text: (§1) The time courses of colistin concentrations in ELF and plasma were best described using one-compartment models with a Weibull absorption process. The following structural PK model described by two differential equations was applied:(1) dA1/dt=−WB×A1 (2) WB=KAMAX×1−e^−RA×time^GAM (3) dA2/dt=WB×A1−CL/V×A2 where A1 and A2 represent the amounts of colistin in ELF and plasma, and WB denotes the Weibull absorption function with parameters KAMMA, RA, and GAM. KAMMA determines the function’s maximum value, often representing the maximum rate of absorption or event occurrence. RA, the shape parameter, controls the rate of change over time, influencing the distribution’s slope and how quickly it increases or decreases. GAM adjusts the time variable’s exponent, controlling the rate of growth or decline over time, thereby affecting the distribution’s asymmetry and indicating the curve’s speed in reaching its peak or declining. CL and V are the total clearance and volume of distribution for colistin, respectively. The estimated CL and V in Table 2 were expressed as CL/fm and V/fm, respectively, where fm represents the fraction of CMS metabolized to colistin, a value that cannot be estimated from our study data. No significant covariates influencing the PK parameters were identified. The estimated PK parameters for the final PK models are presented in Table 2, while individual fit plots for colistin in ELF and plasma can be found in Figure 2 and Figure 3, respectively. Diagnostic goodness-of-fit plots for the final PK model of colistin in ELF and plasma are shown in Supplementary Materials Figures S1 and S2, respectively. […] With the observed 10th, 50th, and 90th percentiles mostly within the 95% confidence intervals of the simulated percentiles, the final PK models effectively explained the observed concentrations and had good predictive performance.
# (§2) A population PK analysis of colistin in ELF and plasma was conducted using NONMEM 7.5.0 (ICON Clinical Research LLC, North Wales, PA, USA). The analysis used first-order conditional estimation with interaction (FOCEI) to estimate both observed fixed and unexplained random effect parameters. The FOCEI allows the inter-individual variability (IIV) in the PK parameters to interact with the residual unexplained variability (RUV) in the observed concentrations. The RUV arises from factors such as within-subject variability, assay error, and potential misspecification of the model. ADVAN1 TRANS2 and ADVAN3 TRANS4 from the NONMEM PK model library were used to construct the single- and two-compartment models, respectively. Except for drug inhalation, all PK processes were assumed to follow first-order kinetics. Various absorption models, including zero-order, first-order, Weibull, and transit absorption models, were investigated to describe the absorption processes of colistin.
# (§3) The representation of each PK parameter was given by θi = θ × exp(ηi), where θ stands for the typical value of the PK parameter, θi represents an individual PK parameter, and ηi is a random variable associated with IIV. It was assumed that IIV follows a normal distribution with a mean of 0 and a variance of ω^2. For RUV, which was assumed to be normally distributed with a mean of 0 and a variance of σ^2; additive, proportional, and combined additive and proportional error models were investigated.
# (§4) Models were assessed and chosen based on NONMEM objective function values (OFVs), the precision of parameter estimates (relative standard errors), the shrinkage of IIV, and diagnostic goodness-of-fit plots. In the log-likelihood ratio test, if the decrease in OFV (ΔOFV) is greater than 3.84 for models with one additional degree of freedom or greater than 5.99 for models with two additional degrees of freedom, it is considered statistically significant at p < 0.05, indicating an improvement in the model. […]
# [3] = Population PK model of colistin in plasma (NONMEM, one-compartment, Weibull absorption); assay type: in vivo, human
# Text: as §1, §2, §3, §4
# [4] = cited from earlier work; for Maximum ELF concentration, median (IQR): 2 MIU CMS
# Experimental: The observed median (IQR) peak colistin concentration was 21,950 (10,440–28,389) μg/L in the ELF, while that in plasma was 43.51 (14.23–85.78) μg/L. Boisson et al. reported that, regardless of concentration, a significant adsorption of CMS to the mini-BAL device was not observed in studies utilizing the mini-BAL device. They also noted that non-specific adsorption was not significant at a concentration of 6 mg/L. Consequently, it appears from our study that there was no significant adsorption of CMS [23]. […] These studies measured concentrations of both CMS and colistin in the ELF, assuming equal V/fm for CMS and colistin. In our study, the V/fm of colistin in plasma was estimated at 67.4 L, which is much greater than the 13.7 L reported in Boisson et al.. Gkoufa et al. fixed this distribution volume at 13.7 L based on Boisson et al.. The CL/fm of colistin ... || The PK/PD index for colistin is the area under the free colistin concentration-–time curve at steady state over 24 h divided by the pathogen minimum inhibitory concentration (fAUC/MIC). Since we were unable to obtain MIC values for A. baumannii, we evaluated the relationship between the PK and PD of colistin by comparing the fAUC of each patient in accordance with their clinical outcomes and microbiological outcomes. AUC was calculated by dividing the daily dose by patient, which was the individual post hoc Bayesian estimate of the developed PK model. The bioavailability of colistin ...
compound,measurement,setting,value
CC[C@H](C)CCCCC(=O)N[C@@H](CCN)C(=O)N[C@H](C(=O)N[C@@H](CCN)C(=O)N[C@H]1CCNC(=O)[C@H]([C@@H](C)O)NC(=O)[C@H](CCN)NC(=O)[C@H](CCN)NC(=O)[C@H](CC(C)C)NC(=O)[C@@H](CC(C)C)NC(=O)[C@H](CCN)NC1=O)[C@@H](C)O [colistin] (X1-[Dab]T[Dab][Dab][Dab][dL]L[Dab][Dab]T; lactam 4-C),Unbound fraction of colistin in the ELF,"[1]; assumed, rounded from 0.099 used in simulations by Gkoufa et al.",10%
same,"Unbound fraction of colistin in plasma, median","[1]; equilibrium dialysis, Mohamed et al.",34%
same,"Isolates with a colistin MIC of 1 mg/L, number (%)",A. baumannii,1451 (50.4%)
same,"Isolates with a colistin MIC of 2 mg/L, number (%)",A. baumannii,539 (18.7%)
same,"Isolates with a colistin MIC of 4 mg/L, number (%)",A. baumannii,54 (1.88%)
same,"CL/fm, bootstrap median (95% CI)",[2]; 2000 bootstrap samples,0.529 (0.352–0.77) mL/min
same,"KAMAX, bootstrap median (95% CI)",[2]; 2000 bootstrap samples,0.533 (0.335–0.973)
same,"V/fm, bootstrap median (95% CI)",[2]; 2000 bootstrap samples,24.3 (11.0–46.7) mL
same,"KAMAX (maximum rate of absorption), estimate",[2]; Weibull absorption,0.531
same,"CL/fm, estimate",[2]; final PK model,0.541 mL/min
same,"V/fm, estimate",[2]; final PK model,23.0 mL
same,"CL/fm, bootstrap median (95% CI)",[3]; 2000 bootstrap samples,26.1 (6.66–67) mL/min
same,"KAMAX, bootstrap median (95% CI)",[3]; 2000 bootstrap samples,1.20 (0.912–1.59)
same,"V/fm, bootstrap median (95% CI)",[3]; 2000 bootstrap samples,67.2 (46.6–93) L
same,"KAMAX (maximum rate of absorption), estimate",[3]; Weibull absorption,1.20
same,"CL/fm, estimate",[3]; final PK model,26.3 mL/min
same,"V/fm, estimate",[3]; final PK model,67.4 L
same,"Maximum ELF concentration, median (IQR)",[4]; jet nebulizer,7.4 (6.2–10.3) mg/L
same,"Maximum ELF concentration, median (IQR)",[4]; vibrating mesh nebulizer,10.4 (4.7–22.6) mg/L
same,CL/fm of colistin in plasma,[4]; Boisson et al.,53.1 mL/min
same,V/fm of colistin in plasma,[4]; Boisson et al.,13.7 L
same,V/fm of colistin in the ELF,[4]; Boisson et al.,1.2 mL
same,CL/fm of colistin in plasma,[4]; Gkoufa et al.,128 mL/min
same,V/fm of colistin in the ELF,[4]; Gkoufa et al.,14.5 mL
same,Bioavailability of colistin,[4]; assumed from the literature to calculate the PK/PD index,9%
same,Intercompartmental CL/fm,"[4]; between ELF and plasma, Gkoufa et al.",0.372 mL/min
